In patent US8933122B2, “Use of cationic surfactants as sporicidal agents” (Laboratorios Miret, S.A., priority 2008, dated 2015):

Assays:
[1] = system: Aureobasidium pullulans ATCC 9348; conditions: Fungi; cited from earlier work
[2] = system: Penicillium funiculosum CECT 2914; conditions: Fungi; cited from earlier work
[3] = system: endospores from Bacillus subtilis ATCC 6633; test: Sporicidal activity, quantitative suspension test EN 13704:2002 (Example 1); format: cell-based; conditions: 20° C.; for Test of LAE sporicidal activity (Na), surviving spores count: 0.3% bovine serum albumin, N 1.8 × 10^7 cfu/mL
Experimental: The determination of the sporicidal activity of LAE has been carried out according to the European standard EN 13704:2002 “Chemical disinfectant—Quantitative suspension test for the evaluation of sporicidal activity of chemical disinfectants used in food, industrial, domestic and institutional areas—Test method and requirements”.
A test suspension containing endospores from Bacillus subtilis ATCC 6633 was prepared from a culture grown on a nutrient agar, to which additional sporulation enhancement ingredients were added. Plates were harvested with sterile water and endospores were purified by repeated centrifugations and resuspensions in water.
Neutralizer. The neutralizer mixture consisted of 12.7% polysorbate 80, 6.0% Tamol® SN (brand of sodium salt of naphthalene-formaldehyde condensate), 1.7% lecithin, 1% peptone and 0.1% cystine. The solution was intended to neutralize any chemicals so that these would not affect subsequent growth of the bacteria.
The sporicidal activity of a given product is defined by its capacity to reduce at least by 10^3 the amount of Bacillus subtilis bacterial spores in suspension, in the conditions established in the method.
The product was in contact with a suspension of bacterial spores during an established period of time of 60 minutes. An interfering substance can be added to the suspension, in this case 0.3% bovine serum albumin in distilled water. Next, the effect of the product is neutralized by adding a neutralizer previously chosen, preceding to the surviving spores count.
• 1. Spore suspension obtained from a spored-form culture of Bacillus subtilis. • 2. Count of the spore suspension of Bacillus subtilis. • 3. The possible toxic effect of the neutralizer on the spores in the absence of the product is valued. • 4. Evaluation of the neutralizing effect of the neutralizer over the product. • 4. Evaluation of the inhibitory effect of the product. • 5. Result calculation. Results: Results are expressed as the reduction of viability of the spore suspension in regards to:
(§1) Tabulation of the Method and Test Validation Results (at 20° C.):
The sporicidal activity is calculated as follows: R=N×0.1/Na N is cfu/mL of the spore suspension. Na is cfu/mL of the sporicidal activity. The calculated reduction of a solution of: • 50 ppm of LAE is R=3.5×10^2 cfu/mL • 100 ppm of LAE is R=3.4×10^2 cfu/mL • 150 ppm of LAE is R=4.3×10^2 cfu/mL • 250 ppm of LAE is R>10^3 cfu/mL
A product is considered sporicidal if its use results in a reduction in the number of Bacillus subtilis bacterial spores equal or above 10^3 after being in contact for 60 minutes in the conditions set in […].

[4] = system: Klebsiella pneumoniae var pneumoniae CECT 178; conditions: Gram − Bacteria; cited from earlier work
[5] = system: Chaetonium globosum ATCC 6205; conditions: Fungi; cited from earlier work
[6] = system: endospores from Thermoanaerobacterium thermosaccharolyticum ATCC 7956; test: Sporicidal activity, quantitative suspension test EN 13704:2002 (Example 4); format: cell-based; conditions: 20° C.; for calculated reduction R=N×0.1/Na: 60 minutes; for Test of LAE sporicidal activity (Na), surviving spores count: water as interfering substance, N 0.65 × 10^6 cfu/mL
Experimental: The determination of the sporicidal activity of LAE has been carried out according to the European standard EN 13704:2002: “Chemical disinfectant—Quantitative suspension test for the evaluation of sporicidal activity of chemical disinfectants used in food, industrial, domestic and institutional areas—Test method and requirements”.
A test suspension containing endospores from Thermoanaerobacterium thermosaccharolyticum ATCC 7956 was prepared from a culture grown on a nutrient agar, to which additional sporulation enhancement ingredients were added. Plates were harvested with sterile water and endospores were purified by repeated centrifugations and resuspensions in water.
Neutralizer. The neutralizer mixture consisted of 30 g/L polysorbate 80 in water. The solution was intended to neutralize any chemicals so that these would not affect subsequent growth of the bacteria.
The sporicidal activity of a given product is defined by its capacity to reduce at least by 10^3 the amount of Thermoanaerobacterium thermosaccharolyticum bacterial spores in suspension, in the conditions established in the method.
The product was in contact with a suspension of bacterial spores during an established period of time of 60 minutes. An interfering substance can be added to the suspension, in this case water. Next, the effect of the product is neutralized by adding a neutralizer previously chosen, preceding to the surviving spores count.
• 1. Spore suspension obtained from a spored-form culture of Thermoanaerobacterium thermosaccharolyticum. • 2. Count of the spore suspension of Thermoanaerobacterium thermosaccharolyticum. • 3. The possible toxic effect of the neutralizer on the spores in the absence of the product is valued. • 4. Validation of the dilution-neutralisation method. • 5. Evaluation of the inhibitory sporicide effect of the product. • 6. Result calculation. Results: Results are expressed as the reduction of viability of the spore suspension in regards to:
as §1
A product is considered sporicidal if its use results in a reduction (R) in the number of Thermoanaerobacterium thermosaccharolyticum bacterial spores equal to or above 10^3 after being in contact for 60 minutes in the conditions set in EN 13704:2002.

[7] = system: Bordetella bronchiseptica ATCC 4617; conditions: Gram − Bacteria; cited from earlier work
[8] = system: Pseudomonas aeruginosa ATCC 9027; conditions: Gram − Bacteria; cited from earlier work
[9] = animals and humans; cited from earlier work
[10] = human beings; cited from earlier work
[11] = system: Citrobacter freundii ATCC 22636; conditions: Gram − Bacteria; cited from earlier work
[12] = system: Staphylococcus aureus ATCC 6538; conditions: Gram + Bacteria; cited from earlier work
[13] = system: Arthrobacter oxydans ATCC 8010; conditions: Gram + Bacteria; cited from earlier work
[14] = system: Rhodotorula rubra CECT 1158; conditions: Yeast; cited from earlier work

SMILES: CCCCCCCCCCCC(=O)N[C@@H](CCCN=C(N)N)C(=O)OCC.Cl [LAE, ethyl ester of the lauramide of the arginine monohydrochloride]
- M.I.C. [1]: 16 ppm
- M.I.C. [2]: 16 ppm
- calculated reduction R=N×0.1/Na ([3]; 50 ppm of LAE, 60 minutes): 3.5×10^2 cfu/mL
- calculated reduction R=N×0.1/Na ([3]; 100 ppm of LAE, 60 minutes): 3.4×10^2 cfu/mL
- calculated reduction R=N×0.1/Na ([3]; 150 ppm of LAE, 60 minutes): 4.3×10^2 cfu/mL
- calculated reduction R=N×0.1/Na ([3]; 250 ppm of LAE, 60 minutes): > 10^3 cfu/mL
- concentration displaying sporicidal activity (reduction equal or above 10^3) ([3]; 60 minutes contact, EN 13704): ≥ 250 ppm
- LAE concentration from which there is inhibition of spore germination ([3]; 60 minutes): ≥ 50 ppm
- Test of LAE sporicidal activity (Na), surviving spores count ([3]; LAE 12.5 μg/mL, 60 minutes contact): >300 cfu/mL
- Test of LAE sporicidal activity (Na), surviving spores count ([3]; LAE 25 μg/mL, 60 minutes contact): >300 cfu/mL
- Test of LAE sporicidal activity (Na), surviving spores count ([3]; LAE 50 μg/mL, 60 minutes contact): 5.2 × 10^3 cfu/mL
- Test of LAE sporicidal activity (Na), surviving spores count ([3]; LAE 100 μg/mL, 60 minutes contact): 5.3 × 10^3 cfu/mL
- Test of LAE sporicidal activity (Na), surviving spores count ([3]; LAE 150 μg/mL, 60 minutes contact): 4.2 × 10^3 cfu/mL
- Test of LAE sporicidal activity (Na), surviving spores count ([3]; LAE 250 μg/mL, 60 minutes contact): No
- Test of LAE sporicidal activity (Na), surviving spores count ([3]; LAE 300 μg/mL, 60 minutes contact): No
- M.I.C. [4]: 32 ppm
- M.I.C. [5]: 16 ppm
- calculated reduction R=N×0.1/Na ([6]; 32 μg/mL of LAE): < 10^3 cfu/mL
- calculated reduction R=N×0.1/Na ([6]; 51 μg/mL of LAE): < 10^3 cfu/mL
- calculated reduction R=N×0.1/Na ([6]; 102 μg/mL of LAE): > 10^3 cfu/mL
- calculated reduction R=N×0.1/Na ([6]; 205 μg/mL of LAE): > 10^3 cfu/mL
- concentration displaying sporicidal activity (reduction equal to or above 10^3) ([6]; 60 minutes contact, EN 13704:2002): ≥ 102 μg/mL
- Test of LAE sporicidal activity (Na), surviving spores count ([6]; LAE 32 μg/mL, 60 minutes contact): 2.7 × 10^3 cfu/mL
- Test of LAE sporicidal activity (Na), surviving spores count ([6]; LAE 51 μg/mL, 60 minutes contact): 1.6 × 10^3 cfu/mL
- Test of LAE sporicidal activity (Na), surviving spores count ([6]; LAE 102 μg/mL, 60 minutes contact): <10^2 cfu/mL
- Test of LAE sporicidal activity (Na), surviving spores count ([6]; LAE 205 μg/mL, 60 minutes contact): <10^2 cfu/mL
- M.I.C. [7]: 128 ppm
- M.I.C. [8]: 64 ppm
- toxicological finding [9]: completely harmless to animals and humans
- tolerability and toxicity in practical use [10]: well tolerated and to display a very low toxicity to human beings
- M.I.C. [11]: 64 ppm
- M.I.C. [12]: 32 ppm
- M.I.C. [13]: 64 ppm
- M.I.C. [14]: 16 ppm
